In assay [1] the target is T1, hMRP5-Δ1-94 (Homo sapiens, UniProt O15440).
T1 construct: The codon-optimized full-length human ABCC5 gene encoding the MRP5 protein (UniProt ID: O15440); 8xHis (C); 2xstrep (C); made in house; host or cells: HEK293F
Nature of the assay: MST binding assay, hMRP5-Δ1-94. Particulars: for binding affinity to hMRP5, in words: MST, digitonin-purified hMRP5-Δ1-94, 15 min at room temperature. As to the method: We monitored the binding of different peptides to digitonin-purified hMRP5-Δ1-94-8xHis by MST assay (Monolith NT). HEPES buffer was used to replace Tris buffer during protein purification in the MST assay. The purified protein was mixed with RED-tris-NTA 2nd Generation dye (NanoTemper, MO-L018). Next, serially diluted peptides were mixed with the labeled protein. The mixtures were incubated for 15 min at room temperature, then the capillaries were loaded and the samples were assessed at 3% LED/excitation power and medium MST power. All peptides used in this study were synthesized in GL Biochem (Shanghai). The peptide sequence is provided as Source Data 5. The MST data were analyzed with MO.Affinity Analysis software.

Assay [2] has as its system hMRP5. Also noted: method as in 2 sources, ref [15]–[18] = [15]; PMID 28277541; doi:10.1038/cddis.2017.53; 15. Hou Y The FOXM1-ABCC5 axis contributes to paclitaxel resistance in nasopharyngeal carcinoma cells Cell Death Dis. 2017 8 e2659 10.1038/cddis.2017.53 28277541 PMC5386553 || [16]; PMID 26975227; doi:10.1038/tpj.2016.17; 16. Lal S Pharmacogenetics of ABCB5, ABCC5 and RLIP76 and doxorubicin pharmacokinetics in Asian breast cancer patients Pharmacogenomics J. 2017 17 337 343 10.1038/tpj.2016.17 26975227 || [17]; PMID 15897250; doi:10.1158/1535-7163.MCT-04-0291; 17. Pratt S The multidrug resistance protein 5 (ABCC5) confers resistance to 5-fluorouracil and transports its monophosphorylated metabolites Mol. Cancer Ther. 2005 4 855 863 10.1158/1535-7163.MCT-04- || [18]; PMID 10840050; doi:10.1073/pnas.120159197; 18. Wijnholds J Multidrug-resistance protein 5 is a multispecific organic anion transporter able to transport nucleotide analogs Proc. Nat. Acad. Sci. USA 2000 97 7476 7481 10.1073/pnas.120159197 1084 ||| ref [18] = [18]; PMID 10840050; doi:10.1073/pnas.120159197; 18. Wijnholds J Multidrug-resistance protein 5 is a multispecific organic anion transporter able to transport nucleotide analogs Proc. Nat. Acad. Sci. USA 2000 97 7476 7481 10.1073/pnas.120159197 1084. The conditions noted are these: cited from earlier work; for efflux by hMRP5 / contribution to drug resistance, in words: anticancer drugs, ref [15]–[18].

The test system of assay [3] is GFP-hMRP5. Put plainly: Doxorubicin transport assay in Xenopus laevis oocytes. The format is cell-based, human. Particulars: no peptide, 200 μM doxorubicin, 180 min, Kulori buffer pH 7.4, final 50 μl extract, LC-MS, *P = 0.0190 blank vs GFP-hMRP5. As to the method:
The transport assay was essentially done and modified as described. In brief, the cRNAs of C-terminal GFP-tagged hMRP5 and C-terminal mcherry-tagged M5PI were prepared from the linearized pcs2CAG vector DNA templates using the mMESSAGE mMACHINE T7 transcription system (Thermo Scientific, AM1344). Xenopus oocytes were injected with approximately 30 nl of cRNA (GFP-tagged hMRP5 and mcherry-tagged M5PI have the equal quantity 30 ng) or water after maintained in ND96 solution (96 mM NaCl, 2 mM KCl, 1 mM MgCl2, 1.8 mM CaCl2, 5 mM HEPES, pH 7.4) overnight. After 3 days of culture, the GFP and mcherry fluorescence of oocytes was detected using Nikon Confocal A1R, and oocytes showing similar fluorescence intensity were selected for assay. Then, oocytes were pre-incubated in Kulori buffer (90 mM NaCl, 1 mM KCl, 1 mM MgCl2, 5 mM HEPES, pH 7.4) for 5 min before being transferred to 1 ml Kulori buffer containing 200 μM doxorubicin for 180 min. The assay was stopped by removing the buffer and then washed with Kulori buffer at least 3 times and transferred into 1.5 ml tubes (3 oocytes per tube). Excess washing buffer was removed from the tube, and then 50 μl 50% methanol was added to the tube for oocyte homogenization by pipetting. The homogenized samples were centrifuged at 10,000 × g for 10 min at 4 °C, and the supernatants were transferred into new tubes and incubated at −20 °C until further analysis. The samples were acquired with a Q Exactive mass spectrometer coupled with UltiMate 3000 liquid chromatography system (Thermo scientific, CA, USA) after centrifugation at 20,000 × g for 15 min at 4 °C. A Hypersil GOLDTM C18 column (2.1 ×100 mm, 1.9 μm, Thermo Scientific) was used at a flow rate of 0.3 ml min^−1 for separation. Mobile phase A was 0.1% formic acid, while mobile phase B was acetonitrile modified with 0.1% formic acid. The mass spectrometer was operated in positive mode with a spray voltage of 3.5 kV. Full scan mass spectrometry data were recorded from the m/z range of 80–800. A standard dilution curve for quantification of doxorubicin was done. Statistical analysis of the transport assay results was performed using GraphPad Prism. Source data is provided as Source Data 6. The mass spectrometry data is provided as Supplementary Data 3.

Assay [4] concerns MRP5. The conditions noted are these: reducing expression of endogenous MRP5; drug and, for 5-fluorouracil, its metabolites; ref [24],[25]; cited from earlier work. From the text:
Patients with high hMRP5 levels tend to have a worse survival rate than those with low expression[20]–[22]. Further, overexpression of hMRP5 is a strong predictor of poor outcomes in cancer patient cohorts[19],[22],[23].

Assay [5] deals with MRP5. Details: method as in PMID 16337112, PMID 15006554, PMID 10893247. Particulars: ref [25],[29],[30]; cited from earlier work.
In assay [6] the target is T2, hMRP4 (Homo sapiens, UniProt O15439).
T2 sequence (O15439 1-1325): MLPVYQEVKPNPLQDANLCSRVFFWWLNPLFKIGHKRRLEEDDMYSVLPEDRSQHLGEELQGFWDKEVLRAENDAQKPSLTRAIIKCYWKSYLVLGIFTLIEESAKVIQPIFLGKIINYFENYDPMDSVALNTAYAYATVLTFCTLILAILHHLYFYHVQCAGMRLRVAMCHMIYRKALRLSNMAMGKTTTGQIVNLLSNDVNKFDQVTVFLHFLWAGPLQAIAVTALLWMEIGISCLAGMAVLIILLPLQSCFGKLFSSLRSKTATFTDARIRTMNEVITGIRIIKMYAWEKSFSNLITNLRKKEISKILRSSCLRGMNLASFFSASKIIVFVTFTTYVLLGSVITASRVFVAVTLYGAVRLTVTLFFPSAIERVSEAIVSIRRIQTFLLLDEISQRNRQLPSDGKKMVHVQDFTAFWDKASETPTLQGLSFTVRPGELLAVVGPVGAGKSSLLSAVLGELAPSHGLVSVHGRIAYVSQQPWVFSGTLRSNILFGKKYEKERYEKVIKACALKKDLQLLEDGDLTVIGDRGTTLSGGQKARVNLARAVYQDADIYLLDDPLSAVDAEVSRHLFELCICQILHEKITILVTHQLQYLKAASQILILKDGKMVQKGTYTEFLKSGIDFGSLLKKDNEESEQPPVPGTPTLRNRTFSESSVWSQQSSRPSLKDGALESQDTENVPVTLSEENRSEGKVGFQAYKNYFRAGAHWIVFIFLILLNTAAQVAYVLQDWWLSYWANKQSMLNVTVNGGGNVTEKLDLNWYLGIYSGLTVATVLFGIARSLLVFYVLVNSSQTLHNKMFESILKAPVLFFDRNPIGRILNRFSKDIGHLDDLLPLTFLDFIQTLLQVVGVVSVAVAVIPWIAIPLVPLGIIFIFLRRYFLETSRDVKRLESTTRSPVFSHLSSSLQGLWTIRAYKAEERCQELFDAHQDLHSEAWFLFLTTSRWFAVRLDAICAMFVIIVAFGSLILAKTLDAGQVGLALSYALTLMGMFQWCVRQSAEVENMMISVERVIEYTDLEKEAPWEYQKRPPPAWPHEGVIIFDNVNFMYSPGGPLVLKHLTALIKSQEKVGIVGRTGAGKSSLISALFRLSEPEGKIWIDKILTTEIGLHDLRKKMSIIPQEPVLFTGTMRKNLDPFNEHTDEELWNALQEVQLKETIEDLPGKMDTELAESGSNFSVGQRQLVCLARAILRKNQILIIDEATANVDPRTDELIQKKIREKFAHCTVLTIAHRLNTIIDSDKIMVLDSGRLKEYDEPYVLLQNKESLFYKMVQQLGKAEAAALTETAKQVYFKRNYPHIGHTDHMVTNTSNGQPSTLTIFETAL
Put plainly: MST binding assay, hMRP4.

Consider 15 molecules from PMC11156954, “Inhibition and transport mechanisms of the ABC transporter hMRP5” (Nature Communications, 2024).

Like-named read-outs stand apart in the source and are kept apart here.

T1 sequence (O15440 95-1437 limits assumed, stated change not applied): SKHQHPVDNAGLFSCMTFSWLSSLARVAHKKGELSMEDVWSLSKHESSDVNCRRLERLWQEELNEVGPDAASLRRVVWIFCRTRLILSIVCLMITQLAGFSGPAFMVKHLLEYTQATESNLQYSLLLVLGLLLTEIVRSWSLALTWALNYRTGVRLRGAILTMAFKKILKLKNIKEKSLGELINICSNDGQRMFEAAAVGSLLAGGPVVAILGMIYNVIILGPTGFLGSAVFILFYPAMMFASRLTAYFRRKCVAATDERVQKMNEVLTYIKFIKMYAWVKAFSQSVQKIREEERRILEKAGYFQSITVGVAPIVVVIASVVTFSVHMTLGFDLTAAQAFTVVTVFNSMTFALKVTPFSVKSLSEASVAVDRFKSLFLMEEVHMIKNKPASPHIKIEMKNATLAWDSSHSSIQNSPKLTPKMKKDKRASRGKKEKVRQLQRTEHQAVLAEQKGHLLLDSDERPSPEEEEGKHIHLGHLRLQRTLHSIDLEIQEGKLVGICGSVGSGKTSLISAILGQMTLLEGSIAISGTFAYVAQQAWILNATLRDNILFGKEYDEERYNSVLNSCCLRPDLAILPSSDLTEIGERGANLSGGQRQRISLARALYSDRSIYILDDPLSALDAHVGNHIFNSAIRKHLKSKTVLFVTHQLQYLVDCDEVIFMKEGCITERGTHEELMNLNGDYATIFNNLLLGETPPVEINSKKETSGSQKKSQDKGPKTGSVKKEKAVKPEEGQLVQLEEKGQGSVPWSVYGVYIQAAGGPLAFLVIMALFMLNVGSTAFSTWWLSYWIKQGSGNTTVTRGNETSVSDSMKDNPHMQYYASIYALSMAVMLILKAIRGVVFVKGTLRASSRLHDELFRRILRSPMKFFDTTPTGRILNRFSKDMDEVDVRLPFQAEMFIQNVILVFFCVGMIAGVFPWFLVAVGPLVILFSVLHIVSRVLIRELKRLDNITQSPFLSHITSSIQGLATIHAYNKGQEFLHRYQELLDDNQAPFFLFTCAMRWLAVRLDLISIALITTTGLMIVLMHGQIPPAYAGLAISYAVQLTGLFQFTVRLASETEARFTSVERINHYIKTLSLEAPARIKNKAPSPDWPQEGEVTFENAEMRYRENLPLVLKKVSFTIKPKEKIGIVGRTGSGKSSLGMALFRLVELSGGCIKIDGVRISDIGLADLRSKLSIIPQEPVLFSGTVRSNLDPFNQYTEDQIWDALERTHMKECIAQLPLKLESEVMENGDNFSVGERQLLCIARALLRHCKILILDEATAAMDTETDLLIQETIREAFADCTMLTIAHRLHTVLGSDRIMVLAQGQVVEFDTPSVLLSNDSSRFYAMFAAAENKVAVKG

For `CC(=O)[C@H]1CC[C@H]2[C@@H]3CCC4=CC(=O)CC[C@]4(C)[C@H]3CC[C@]12C` [progesterone], the “binding affinity to hMRP5, in words” value in assay [1] is recorded as “relatively low binding affinity”. On to `COc1cccc2c1C(=O)c1c(O)c3c(c(O)c1C2=O)C[C@@](O)(C(=O)CO)C[C@@H]3O[C@H]1C[C@H](N)[C@H](O)[C@H](C)O1` [Doxorubicin, doxorubicin], for which, in assay [2], the “efflux by hMRP5 / contribution to drug resistance, in words” value (shortened to “efflux by hMRP5 / contribution”) was “directly contribute to cancer drug resistance through the efflux”. This molecule had a Kd in assay [1] of 53.5 ± 22.9 µM. Further, the “Doxorubicin concentration in oocyte extract, GFP-hMRP5” value in assay [3] (replicate 1) was 323.646 nM; in assay [3] (replicate 2), 292.08 nM; in assay [3] (replicate 3) it was 493.92 nM; in assay [3] (replicate 4), 266.323 nM. As to `Nc1nc2[nH]cc(CCc3ccc(C(=O)N[C@@H](CCC(=O)O)C(=O)O)cc3)c2c(=O)[nH]1` [pemetrexed], the “intracellular drug concentration on reducing endogenous MRP5, in words” value in assay [4] is recorded as “notably increase the intracellular concentrations”. As to `N.N.[Cl][Pt][Cl]` [cisplatin], the “efflux by hMRP5 / contribution” value in assay [2] was “directly contribute to cancer drug resistance through the efflux”. Take `CCCc1nn(C)c2c(=O)[nH]c(-c3cc(S(=O)(=O)N4CCN(C)CC4)ccc3OCC)nc12` [sildenafil]: in assay [5], the “inhibition of MRP5 transport activity, in words” value (from here on “inhibition”) was “reported to inhibit the transport activity of MRP5”. `CCCOc1ccccc1-c1nc2nn[nH]c2c(=O)[nH]1` [zaprinast]: the “inhibition” value in assay [5] is on record as “reported to inhibit the transport activity of MRP5”.

For the molecule `C[C@]12CC[C@H]3[C@@H](CCC4=CC(=O)CC[C@@]43C)[C@@H]1CC[C@@H]2O` [testosterone], the “binding affinity to hMRP5, in words” value in assay [1] is recorded as “relatively low binding affinity”.

With `CN(C)C(=O)CCSC(SCCC(=O)O)c1cccc(/C=C/c2ccc3ccc(Cl)cc3n2)c1` (stereo not shown) [MK-571], the “inhibition” value in assay [5] is “reported to inhibit the transport activity of MRP5”. `CCCCC[C@H](O)/C=C/[C@H]1[C@H](O)CC(=O)[C@@H]1CCCCCCC(=O)O` [PGE1, prostaglandin E1] came in with a Kd in assay [6] of 3.73 ± 0.66 µM. Also, the “binding affinity to hMRP4, in words” value in assay [6] (MST, three independent measurements) was “hMRP4 could capture prostaglandin E1 (PGE1)”.

With `O=c1[nH]cc(F)c(=O)[nH]1` [5-fluorouracil], the “intracellular drug concentration on reducing endogenous MRP5, in words” value in assay [4] is “notably increase the intracellular concentrations”. For the molecule `CN(Cc1cnc2nc(N)nc(N)c2n1)c1ccc(C(=O)N[C@@H](CCC(=O)O)C(=O)O)cc1` [methotrexate], the “efflux by hMRP5 / contribution” value in assay [2] is “directly contribute to cancer drug resistance through the efflux”. In the case of `COc1cc2c(cc1OC)-c1c/c(=N\c3c(C)cc(C)cc3C)n(C)c(=O)n1CC2` [Trequinsin, trequinsin], the “inhibition” value in assay [5] was “reported to inhibit the transport activity of MRP5”. Besides, in assay [1] (digitonin-purified hMRP5-Δ1-94-8xHis, HEPES buffer, RED-tris-NTA 2nd Generation dye, 15 min at room temperature, 3% LED/excitation power, medium MST power, mean ± SEM of three independent measurements, read-out: binding affinity (MST), KD value), the Kd is 42.4 ± 17.5 µM. Take `CCCN(CCC)S(=O)(=O)c1ccc(C(=O)O)cc1` [probenecid]: the “inhibition” value in assay [5] is “reported to inhibit the transport activity of MRP5”.

Take `Nc1nc2c(ncn2[C@@H]2O[C@@H]3COP(=O)(O)O[C@H]3[C@H]2O)c(=O)[nH]1` [cGMP, cyclic GMP]: the “binding affinity to hMRP5, in words” value in assay [1] is “relatively low binding affinity”.

For the molecule `Nc1ncnc2c1ncn2CCOCP(=O)(O)O` [9-(2-phosphonomethoxyethyl) adenine], the “transport by hMRP5, in words” value in assay [2] (antiviral monophosphate nucleotide analog, ref [18]) was “leading to antiviral multidrug resistance”.
